Data as given in patent US20110245284A1, “Alkoxy- and Alkylthio-Substituted Anilinopyrimidines” (Bayer CropScience AG, priority 2008, published 2011).

How the values were obtained:
Pyrenophora teres = Pyrenophora teres test (barley) / protective; assay type: in vivo; details: 192 h, active compound concentration 500 ppm, evaluation 8 days after inoculation, read-out: efficacy
Method: After the spray coating has dried on, the plants are sprayed with a spore suspension of Pyrenophora teres. The plants remain in an incubation cabinet for 48 hours at 20° C. and 100% relative atmospheric humidity.

Leptosphaeria nodorum = Leptosphaeria nodorum test (wheat) / protective; assay type: in vivo; details: Parastagonospora nodorum, active compound concentration 500 ppm, evaluation 7-9 days after inoculation, read-out: efficacy
Method: Thereafter, the plants are placed in a greenhouse at 90% relative atmospheric humidity and a temperature of 22° C.

Pyricularia oryzae = assay: whole plant or invertebrate; assay type: in vivo; details: 120 h, read-out: efficacy
Sphaerotheca fuliginea = assay: Sphaerotheca test (cucumber) / protective; assay type: in vivo; details: Podosphaera fuliginea, 168 h, active compound concentration 500 ppm, evaluation 7 days after inoculation, read-out: efficacy
Method: The plants are subsequently placed in a greenhouse at 70% relative atmospheric humidity and a temperature of 23° C.

Rhizoctonia solani = assay: Rhizoctonia test (rice) / protective; assay type: in vivo; details: 96 h, active compound concentration 250 ppm, evaluation 4 days after inoculation, read-out: efficacy
[1] = logP by LC-MS on reversed-phase columns (C 18), method [b], acidic range pH 2.7; assay type: physicochemical; details: pH 2.7, log p
Method: (§1) The logP values were determined in accordance with EEC Directive 79/831 Annex V.A8 by HPLC (High Performance Liquid Chromatography) on reversed-phase columns (C 18), using the methods below:
[b] The LC-MS determination in the acidic range is carried out at pH 2.7 using the mobile phases 0.1% aqueous formic acid and acetonitrile (contains 0.1% formic acid), linear gradient from 10% acetonitrile to 95% acetonitrile.

[2] = logP by LC-MS on reversed-phase columns (C 18), method [c], neutral range pH 7.8; assay type: physicochemical; details: pH 7.8
Method: as §1
[c] The LC-MS determination in the neutral range is carried out at pH 7.8 using the mobile phases 0.001 molar aqueous ammonium bicarbonate solution and acetonitrile, linear gradient from 10% acetonitrile to 95% acetonitrile.

[3] = logP by HPLC on reversed-phase columns (C 18), method [a], acidic range pH 2.3; assay type: physicochemical
Method: as §1
[a] The determination is carried out in the acidic range at pH 2.3 using the mobile phases 0.1% aqueous phosphoric acid and acetonitrile, linear gradient from 10% acetonitrile to 95% acetonitrile.

Venturia inaequalis = assay: Venturia test (apple) / protective; assay type: in vivo; details: 240 h, active compound concentration 100 ppm, evaluation 10 days after inoculation, read-out: efficacy
Method: After the spray coating has dried on, the plants are inoculated with an aqueous conidia suspension of the apple scab pathogen Venturia inaequalis and then remain for 1 day in an incubation cabinet at about 20° C. and 100% relative atmospheric humidity.

Alternaria solani = assay: Alternaria test (tomato) / protective; assay type: in vivo; details: 72 h, active compound concentration 100 ppm, evaluation 3 days after inoculation, read-out: efficacy
Method: The plants are then placed in an incubation cabinet at about 20° C. and 100% relative atmospheric humidity.

Row | SMILES | pest or weed control at 500 ppm (Pyrenophora teres) | pest or weed control at 500 ppm (Leptosphaeria nodorum) | pest or weed control at 250 ppm (Pyricularia oryzae) | pest or weed control at 500 ppm (Sphaerotheca fuliginea) | pest or weed control at 250 ppm (Rhizoctonia solani) | chromatographic logP [1] | chromatographic logP [2] | chromatographic logP ([3]; pH 2.3, logP (pH2.3)) | pest or weed control at 100 ppm (Venturia inaequalis) | pest or weed control at 100 ppm (Alternaria solani) | chromatographic logP ([3]; pH 2.3, log p)
1 | COCCOc1cccc(Nc2ncc(Cl)c(NC3CC3C)n2)c1 (stereo not drawn) [Example 209] | ≥ 70% | ≥ 70% | – | – | – | – | – | – | – | – | –
2 | CCOCCOc1cc(Nc2ncc(C(F)(F)F)c(NC3CC3)n2)ccc1C [Example 79] | – | ≥ 70% | ≥ 80% | ≥ 70% | ≥ 80% | 3.66 | 4.15 | – | – | – | –
3 | CCC(C)[S+]([O-])c1cccc(Nc2ncc(Cl)c(NC3CC3)n2)c1 (stereo not drawn) [Example 175] | ≥ 70% | ≥ 70% | – | ≥ 70% | – | 2.12 | 2.74 | – | – | – | –
4 | CCS(=O)(=O)C(C)c1cccc(Nc2ncc(C(F)(F)F)c(NC3CCC3)n2)c1 (stereo not drawn) [Example 40, N^4-cyclobutyl-N^2-{3-[1-(ethylsulphonyl)ethyl]phenyl}-5-(trifluoromethyl)pyrimidine-2,4-diamine] | – | ≥ 70% | – | ≥ 70% | – | 2.89 | – | 2.89 | – | – | –
5 | CCCC[S+]([O-])c1cccc(Nc2ncc(Cl)c(NC3CCC3)n2)c1 (stereo not drawn) [Example 171] | – | ≥ 70% | – | – | – | 2.48 | 3.31 | – | ≥ 70% | ≥ 70% | –
6 | COCC(O)c1cccc(Nc2ncc(Cl)c(NC3CC3)n2)c1 (stereo not drawn) [Example 194] | ≥ 70% | ≥ 70% | – | ≥ 70% | – | 1.26 | – | – | – | – | –
7 | COCc1cccc(Nc2ncc(Cl)c(NC3CC3C)n2)c1 (stereo not drawn) [Example 65] | – | ≥ 70% | – | – | – | 2.03 | 3.3 | – | ≥ 70% | ≥ 70% | –
8 | CCCCS(=O)(=O)c1cccc(Nc2ncc(Br)c(NC3CCC3)n2)c1 [Example 151] | – | ≥ 70% | ≥ 80% | – | ≥ 80% | 3.24 | 3.88 | – | – | – | –
9 | CCCSc1cccc(Nc2ncc(Cl)c(NC(C)C)n2)c1 [Example 31, 5-Chloro-N^4-(propan-2-yl)-N^2-[3-(propylsulphanyl)phenyl]pyrimidine-2,4-diamine] | – | ≥ 70% | – | ≥ 70% | ≥ 80% | 3.3 | – | 3.27 | – | – | –
10 | CC[S+]([O-])c1cccc(Nc2ncc(Br)c(NC3CCC3)n2)c1 (stereo not drawn) [Example 112] | ≥ 70% | ≥ 70% | – | ≥ 70% | – | 1.88 | 2.63 | – | – | – | –
11 | CCCS(=O)(=O)c1cccc(Nc2ncc(C(F)(F)F)c(NC3CCC3)n2)c1 [Example 34, N^4-Cyclobutyl-N^2-[3-(propylsulphonyl)phenyl]-5-(trifluoromethyl)pyrimidine-2,4-diamine] | – | ≥ 70% | – | ≥ 70% | ≥ 80% | 3.46 | – | 3.46 | – | – | –
12 | CCSC(C)c1cccc(Nc2ncc(Cl)c(NC(C)C)n2)c1 (stereo not drawn) [Example 131] | ≥ 70% | ≥ 70% | – | ≥ 70% | – | 2.91 | 4.65 | – | – | – | –
13 | CCC(c1cccc(Nc2ncc(Cl)c(NC3CC3)n2)c1)S(=O)(=O)CC (stereo not drawn) [Example 120] | – | ≥ 70% | – | ≥ 70% | – | 1.94 | 2.83 | – | ≥ 70% | ≥ 70% | –
14 | COCc1cccc(Nc2ncc(Cl)c(NC3CCC3C)n2)c1 (stereo not drawn) [Example 207] | – | ≥ 70% | ≥ 80% | – | ≥ 80% | 2.44 | 4 | – | – | – | –
15 | COCc1cccc(Nc2ncc(F)c(NC3CCC3)n2)c1 [Example 8] | – | ≥ 70% | – | ≥ 70% | – | – | 2.95 | – | – | – | 1.5
16 | CC[S+]([O-])C(C)c1cccc(Nc2ncc(C(F)(F)F)c(NC3CCC3)n2)c1 (stereo not drawn) [Example 43, N^4-Cyclobutyl-N^2-{3-[1-(ethylsulphinyl)ethyl]phenyl}-5-(trifluoromethyl)pyrimidine-2,4-diamine] | – | ≥ 70% | – | ≥ 70% | – | 2.55 | – | 2.55 | – | – | –
17 | CC[S+]([O-])c1cccc(Nc2ncc(Cl)c(NC3CC3)n2)c1 (stereo not drawn) [Example 114] | ≥ 70% | ≥ 70% | – | ≥ 70% | – | 1.48 | 2.11 | – | – | – | 1.49
18 | CCC[S+]([O-])c1cccc(Nc2ncc(C(F)(F)F)c(NC3CCC3)n2)c1 (stereo not drawn) [Example 35] | – | ≥ 70% | – | ≥ 70% | – | 2.97 | – | – | ≥ 70% | ≥ 70% | –
19 | CCC(C)Sc1cccc(Nc2ncc(Cl)c(NC3CCC3)n2)c1 (stereo not drawn) [Example 6] | – | ≥ 70% | ≥ 80% | – | ≥ 80% | 4.14 | – | – | – | – | –
20 | CCCCS(=O)(=O)c1cccc(Nc2ncc(Br)c(NC3CC3)n2)c1 [Example 125] | – | ≥ 70% | – | – | – | 2.81 | 3.32 | – | ≥ 70% | ≥ 70% | –
21 | CCS(=O)(=O)c1cccc(Nc2ncc(Br)c(NC3CCC3)n2)c1 [Example 111] | – | ≥ 70% | – | ≥ 70% | – | 2.36 | 3.06 | – | ≥ 70% | ≥ 70% | –
22 | CCCC[S+]([O-])c1cccc(Nc2ncc(Cl)c(NC3CC3)n2)c1 (stereo not drawn) [Example 124] | ≥ 70% | ≥ 70% | – | ≥ 70% | – | 2.13 | 2.71 | – | – | – | –
23 | CCCSc1cccc(Nc2ncc(Cl)c(NC3CC3C)n2)c1 (stereo not drawn) [Example 63] | – | ≥ 70% | – | – | – | 3.58 | – | – | ≥ 70% | ≥ 70% | –
24 | CC(C)C[S+]([O-])c1cccc(Nc2ncc(Cl)c(NC3CC3)n2)c1 (stereo not drawn) [Example 162] | – | ≥ 70% | – | – | – | 2.11 | 2.81 | – | – | ≥ 70% | –
25 | CCCS(=O)(=O)c1ccc(Nc2ncc(Cl)c(NC3CC3)n2)cc1 [Example 97] | ≥ 70% | ≥ 70% | ≥ 80% | – | – | 2.42 | 2.76 | – | – | – | –
26 | CCOCCCSc1cccc(Nc2ncc(Cl)c(NC3CC3)n2)c1 [Example 204] | ≥ 70% | ≥ 70% | – | – | – | 3.02 | 4.22 | – | – | – | –
27 | CCC(C)SC(C)c1cccc(Nc2ncc(C(F)(F)F)c(NC3CC3)n2)c1 (stereo not drawn) [Example 132] | ≥ 70% | ≥ 70% | – | ≥ 70% | – | 5.09 | 5.38 | – | – | – | –
28 | CCOCCSc1cccc(Nc2ncc(C(F)(F)F)c(NC3CC3)n2)c1 [Example 190] | ≥ 70% | ≥ 70% | – | ≥ 70% | – | 3.87 | 4.05 | – | – | – | –
29 | CCSCc1cccc(Nc2ncc(Cl)c(NC(C)C)n2)c1 [Example 33] | ≥ 70% | ≥ 70% | – | ≥ 70% | – | 2.61 | – | – | ≥ 70% | ≥ 70% | –
30 | CCC[S+]([O-])c1ccc(Nc2ncc(Cl)c(NC3CC3)n2)cc1 (stereo not drawn) [Example 98] | ≥ 70% | ≥ 70% | ≥ 80% | ≥ 70% | – | 1.78 | – | – | – | – | –
